{
  "source": "patent US11572590B2",
  "about": "“Methods for evaluating tumor cell spheroids using 3D microfluidic cell culture device” (Dana-Farber Cancer Institute, Inc., priority 2017, dated 2023)",
  "assay_in_all_cases": "SelectScreen Kinase Profiling, single point inhibition and IC50 for off-target kinases",
  "assay_type_in_all_cases": "biochemical",
  "key": {"[1]": {"target": "off-target kinases (Homo sapiens, UniProt O00443)", "conditions": "PIK3C2A (PI3K-C2 alpha); Cmpd1 1000 μM; ATP Km app; Adapta"}, "[2]": {"target": "off-target kinases (Homo sapiens, UniProt P06213)", "sequence (P06213 28-1382)": "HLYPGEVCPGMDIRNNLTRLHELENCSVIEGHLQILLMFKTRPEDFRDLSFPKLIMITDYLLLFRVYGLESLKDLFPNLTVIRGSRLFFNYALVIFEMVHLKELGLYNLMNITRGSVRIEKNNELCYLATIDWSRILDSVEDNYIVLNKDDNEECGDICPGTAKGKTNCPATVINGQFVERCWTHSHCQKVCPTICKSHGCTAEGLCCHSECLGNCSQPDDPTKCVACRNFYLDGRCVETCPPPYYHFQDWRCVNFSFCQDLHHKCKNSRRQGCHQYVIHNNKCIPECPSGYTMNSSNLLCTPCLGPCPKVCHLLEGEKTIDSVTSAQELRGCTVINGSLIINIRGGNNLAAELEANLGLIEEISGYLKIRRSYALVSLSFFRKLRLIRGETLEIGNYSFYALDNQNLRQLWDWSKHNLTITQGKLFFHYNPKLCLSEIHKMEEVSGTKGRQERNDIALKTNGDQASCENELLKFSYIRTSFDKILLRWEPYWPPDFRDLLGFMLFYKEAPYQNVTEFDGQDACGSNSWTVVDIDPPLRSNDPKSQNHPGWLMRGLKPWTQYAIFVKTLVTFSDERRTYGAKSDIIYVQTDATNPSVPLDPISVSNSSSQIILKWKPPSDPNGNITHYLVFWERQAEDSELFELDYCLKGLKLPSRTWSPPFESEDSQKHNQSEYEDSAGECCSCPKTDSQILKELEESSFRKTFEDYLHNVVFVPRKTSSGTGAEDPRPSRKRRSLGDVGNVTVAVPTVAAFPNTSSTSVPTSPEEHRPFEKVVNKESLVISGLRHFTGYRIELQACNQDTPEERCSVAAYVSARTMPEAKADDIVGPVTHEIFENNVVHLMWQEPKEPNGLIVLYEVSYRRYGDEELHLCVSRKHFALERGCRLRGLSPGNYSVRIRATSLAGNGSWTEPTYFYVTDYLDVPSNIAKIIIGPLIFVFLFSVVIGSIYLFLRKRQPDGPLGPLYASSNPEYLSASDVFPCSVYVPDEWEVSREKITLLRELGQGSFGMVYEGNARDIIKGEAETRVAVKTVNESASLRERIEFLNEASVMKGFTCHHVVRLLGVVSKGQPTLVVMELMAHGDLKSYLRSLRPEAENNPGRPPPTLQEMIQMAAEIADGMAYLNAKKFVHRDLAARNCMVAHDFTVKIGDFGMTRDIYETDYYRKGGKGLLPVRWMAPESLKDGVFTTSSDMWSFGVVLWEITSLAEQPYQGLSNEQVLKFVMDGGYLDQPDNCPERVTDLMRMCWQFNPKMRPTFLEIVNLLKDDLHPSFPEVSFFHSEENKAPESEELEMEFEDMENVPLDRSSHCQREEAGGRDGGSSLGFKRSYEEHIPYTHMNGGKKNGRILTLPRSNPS", "conditions": "INSR, ZLYTE, ATP Km app"}, "[3]": {"target": "off-target kinases (Homo sapiens, UniProt P07949)", "sequence (P07949 29-1114)": "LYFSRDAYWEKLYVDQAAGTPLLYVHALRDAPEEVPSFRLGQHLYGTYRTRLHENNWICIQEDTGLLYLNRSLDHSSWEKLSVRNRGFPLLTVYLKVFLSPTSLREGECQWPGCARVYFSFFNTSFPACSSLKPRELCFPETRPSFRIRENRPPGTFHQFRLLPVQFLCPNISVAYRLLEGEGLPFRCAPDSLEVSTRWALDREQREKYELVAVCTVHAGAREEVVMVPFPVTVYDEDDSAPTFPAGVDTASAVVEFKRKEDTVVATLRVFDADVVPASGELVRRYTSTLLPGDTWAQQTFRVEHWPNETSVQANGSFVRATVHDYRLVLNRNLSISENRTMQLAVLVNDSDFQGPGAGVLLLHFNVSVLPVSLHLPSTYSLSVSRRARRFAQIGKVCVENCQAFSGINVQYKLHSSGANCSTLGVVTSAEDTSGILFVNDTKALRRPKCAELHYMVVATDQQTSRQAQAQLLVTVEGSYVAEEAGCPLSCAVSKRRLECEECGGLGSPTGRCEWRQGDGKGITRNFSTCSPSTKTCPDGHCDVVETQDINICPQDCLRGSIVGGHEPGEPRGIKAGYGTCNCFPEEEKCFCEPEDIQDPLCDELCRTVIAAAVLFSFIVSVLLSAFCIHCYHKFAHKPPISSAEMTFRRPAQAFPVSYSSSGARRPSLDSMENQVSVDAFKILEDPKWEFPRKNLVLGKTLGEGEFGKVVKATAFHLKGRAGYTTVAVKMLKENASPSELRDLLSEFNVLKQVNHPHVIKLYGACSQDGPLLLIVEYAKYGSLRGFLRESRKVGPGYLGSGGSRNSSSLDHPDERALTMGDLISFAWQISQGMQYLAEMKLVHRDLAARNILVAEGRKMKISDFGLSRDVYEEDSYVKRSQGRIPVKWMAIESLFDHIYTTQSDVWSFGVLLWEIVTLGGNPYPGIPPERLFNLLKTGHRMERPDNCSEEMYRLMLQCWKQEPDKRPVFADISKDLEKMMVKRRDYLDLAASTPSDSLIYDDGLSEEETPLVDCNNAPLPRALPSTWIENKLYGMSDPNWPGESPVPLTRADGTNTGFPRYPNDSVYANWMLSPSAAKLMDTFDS", "conditions": "RET, ATP Km app, ZLYTE"}, "[4]": {"target": "off-target kinases (Homo sapiens, UniProt Q16539)", "sequence (Q16539 whole entry)": "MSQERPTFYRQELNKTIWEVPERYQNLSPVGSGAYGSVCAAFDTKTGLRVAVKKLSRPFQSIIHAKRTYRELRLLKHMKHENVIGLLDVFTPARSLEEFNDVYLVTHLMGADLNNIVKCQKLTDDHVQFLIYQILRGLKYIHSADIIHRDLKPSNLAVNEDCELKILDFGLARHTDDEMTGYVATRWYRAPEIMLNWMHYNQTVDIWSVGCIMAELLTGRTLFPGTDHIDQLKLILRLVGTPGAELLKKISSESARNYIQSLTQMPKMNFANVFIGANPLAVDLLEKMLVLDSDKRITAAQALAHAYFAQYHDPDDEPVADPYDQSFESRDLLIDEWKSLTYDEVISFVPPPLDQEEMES", "conditions": "ZLYTE"}, "[5]": {"target": "off-target kinases (Homo sapiens, UniProt Q16584)", "sequence (Q16584 whole entry)": "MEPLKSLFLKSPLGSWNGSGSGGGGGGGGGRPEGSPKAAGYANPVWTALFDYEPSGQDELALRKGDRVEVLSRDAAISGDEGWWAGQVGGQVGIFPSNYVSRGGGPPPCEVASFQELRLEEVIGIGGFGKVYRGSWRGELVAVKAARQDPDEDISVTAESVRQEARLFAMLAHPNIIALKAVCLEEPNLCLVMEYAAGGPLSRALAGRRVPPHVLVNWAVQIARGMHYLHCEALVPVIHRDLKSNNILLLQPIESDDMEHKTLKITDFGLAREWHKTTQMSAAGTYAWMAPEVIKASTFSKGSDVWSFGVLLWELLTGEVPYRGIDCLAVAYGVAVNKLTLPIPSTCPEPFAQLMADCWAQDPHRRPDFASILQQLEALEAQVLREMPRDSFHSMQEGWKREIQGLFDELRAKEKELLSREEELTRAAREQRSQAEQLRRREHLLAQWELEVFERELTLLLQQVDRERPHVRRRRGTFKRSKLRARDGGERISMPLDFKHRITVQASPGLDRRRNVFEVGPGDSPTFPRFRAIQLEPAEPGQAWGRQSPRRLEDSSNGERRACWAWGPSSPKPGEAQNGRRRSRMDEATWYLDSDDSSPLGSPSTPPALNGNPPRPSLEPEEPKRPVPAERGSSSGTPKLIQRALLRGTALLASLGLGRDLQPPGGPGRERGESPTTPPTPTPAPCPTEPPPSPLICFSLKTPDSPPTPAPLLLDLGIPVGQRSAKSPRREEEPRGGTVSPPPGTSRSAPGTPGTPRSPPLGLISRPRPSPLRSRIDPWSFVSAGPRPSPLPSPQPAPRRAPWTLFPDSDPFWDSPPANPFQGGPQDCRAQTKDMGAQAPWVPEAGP", "conditions": "MAP3K11 (MLK3), LanthaScreen Binding"}, "[6]": {"target": "T1, off-target kinases (Homo sapiens, UniProt Q16832)", "T1 sequence (Q16832 22-855)": "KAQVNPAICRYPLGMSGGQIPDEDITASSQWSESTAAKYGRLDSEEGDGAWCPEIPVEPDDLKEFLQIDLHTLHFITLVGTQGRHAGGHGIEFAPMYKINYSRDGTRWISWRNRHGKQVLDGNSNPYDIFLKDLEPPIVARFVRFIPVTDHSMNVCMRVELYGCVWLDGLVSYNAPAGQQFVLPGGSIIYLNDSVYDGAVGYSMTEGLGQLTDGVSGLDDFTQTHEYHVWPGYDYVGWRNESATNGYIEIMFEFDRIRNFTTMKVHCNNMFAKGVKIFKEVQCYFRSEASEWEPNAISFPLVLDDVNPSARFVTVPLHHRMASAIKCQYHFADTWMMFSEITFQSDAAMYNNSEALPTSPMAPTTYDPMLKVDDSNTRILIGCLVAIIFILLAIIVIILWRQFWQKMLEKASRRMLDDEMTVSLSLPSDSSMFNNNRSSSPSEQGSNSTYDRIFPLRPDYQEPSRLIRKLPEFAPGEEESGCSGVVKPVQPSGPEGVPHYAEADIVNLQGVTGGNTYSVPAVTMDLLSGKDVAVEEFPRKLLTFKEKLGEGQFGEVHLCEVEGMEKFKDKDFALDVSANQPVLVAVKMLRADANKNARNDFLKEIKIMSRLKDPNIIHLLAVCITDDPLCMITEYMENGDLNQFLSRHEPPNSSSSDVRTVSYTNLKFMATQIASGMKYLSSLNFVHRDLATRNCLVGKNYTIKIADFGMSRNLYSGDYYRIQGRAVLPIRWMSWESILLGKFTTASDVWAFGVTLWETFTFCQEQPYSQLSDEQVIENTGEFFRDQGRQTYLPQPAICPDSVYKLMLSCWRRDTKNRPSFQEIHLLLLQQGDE", "conditions": "DDR2, LanthaScreen Binding"}, "[7]": {"target": "off-target kinases (Homo sapiens, UniProt Q9UBF8)", "sequence (Q9UBF8 whole entry)": "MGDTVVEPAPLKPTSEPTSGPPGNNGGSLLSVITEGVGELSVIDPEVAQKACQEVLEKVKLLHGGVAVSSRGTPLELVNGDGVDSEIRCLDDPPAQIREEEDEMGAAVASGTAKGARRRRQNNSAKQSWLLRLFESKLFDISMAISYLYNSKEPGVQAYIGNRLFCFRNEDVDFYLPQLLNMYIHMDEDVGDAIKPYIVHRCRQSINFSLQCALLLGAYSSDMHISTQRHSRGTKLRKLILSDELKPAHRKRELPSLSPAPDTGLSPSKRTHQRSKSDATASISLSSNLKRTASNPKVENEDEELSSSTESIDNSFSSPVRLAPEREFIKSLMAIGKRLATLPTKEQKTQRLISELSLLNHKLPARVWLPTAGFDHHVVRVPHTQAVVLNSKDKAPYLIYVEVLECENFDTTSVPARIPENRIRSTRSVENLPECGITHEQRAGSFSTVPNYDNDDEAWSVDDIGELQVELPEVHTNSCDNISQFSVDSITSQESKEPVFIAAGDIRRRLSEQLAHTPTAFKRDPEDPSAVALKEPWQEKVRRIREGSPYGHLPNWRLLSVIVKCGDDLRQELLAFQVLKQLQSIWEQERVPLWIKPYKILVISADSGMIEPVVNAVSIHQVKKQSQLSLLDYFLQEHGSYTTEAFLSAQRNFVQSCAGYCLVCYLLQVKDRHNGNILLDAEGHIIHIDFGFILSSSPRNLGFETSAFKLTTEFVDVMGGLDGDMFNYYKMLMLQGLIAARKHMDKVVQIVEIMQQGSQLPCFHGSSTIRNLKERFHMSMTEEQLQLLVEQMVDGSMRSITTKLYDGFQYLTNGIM", "conditions": "PI4KB (PI4K beta), Adapta, ATP Km app"}},
  "note": "Read-outs that look alike come from different tables or passages of the source.",
  "data": [
    {"smiles": "N#Cc1cc(-c2ncnc(Nc3ccc(N4CCN(C5COC5)CC4)cc3)n2)ccc1OC1CCOCC1", "note": "[Compound 1, 5-(4-((4-(4-(oxetan-3-yl)piperazin-1-yl)phenyl)amino)-1,3,5-triazin-2-yl)-2-((tetrahydro-2H-pyran-4-yl)oxy)benzonitrile]", "values": [
      {"measurement": "% Inhibition 1", "setting": "[1]", "result": "−7", "unit": "%"},
      {"measurement": "% Inhibition 2", "setting": "[1]", "result": "−9", "unit": "%"},
      {"measurement": "% Inhibition Avg", "setting": "[1]", "result": "−8", "unit": "%"},
      {"measurement": "inhibition", "setting": "[2]; read-out: % Inhibition 1", "result": -1, "unit": "%"},
      {"measurement": "inhibition", "setting": "[2]; read-out: % Inhibition 2", "result": 1, "unit": "%"},
      {"measurement": "inhibition", "setting": "[2]; read-out: % Inhibition Avg", "result": 0, "unit": "%"},
      {"measurement": "inhibition", "setting": "[3]; read-out: % Inhibition 1", "result": 46, "unit": "%"},
      {"measurement": "inhibition", "setting": "[3]; read-out: % Inhibition 2", "result": 42, "unit": "%"},
      {"measurement": "inhibition", "setting": "[3]; read-out: % Inhibition Avg", "result": 44, "unit": "%"},
      {"measurement": "inhibition", "setting": "[4]; MAPK14 (p38 alpha) Direct, ATP Km app, read-out: % Inhibition 1", "result": 2, "unit": "%"},
      {"measurement": "inhibition", "setting": "[4]; MAPK14 (p38 alpha) Direct, ATP Km app, read-out: % Inhibition 2", "result": 1, "unit": "%"},
      {"measurement": "inhibition", "setting": "[4]; MAPK14 (p38 alpha) Direct, ATP Km app, read-out: % Inhibition Avg", "result": 1, "unit": "%"},
      {"measurement": "inhibition", "setting": "[4]; MAPK14 (p38 alpha), ATP 100, read-out: % Inhibition 1", "result": -1, "unit": "%"},
      {"measurement": "inhibition", "setting": "[4]; MAPK14 (p38 alpha), ATP 100, read-out: % Inhibition 2", "result": 9, "unit": "%"},
      {"measurement": "inhibition", "setting": "[4]; MAPK14 (p38 alpha), ATP 100, read-out: % Inhibition Avg", "result": 4, "unit": "%"},
      {"measurement": "inhibition", "setting": "[5]; read-out: % Inhibition 1", "result": 24, "unit": "%"},
      {"measurement": "inhibition", "setting": "[5]; read-out: % Inhibition 2", "result": 29, "unit": "%"},
      {"measurement": "inhibition", "setting": "[5]; read-out: % Inhibition Avg", "result": 26, "unit": "%"},
      {"measurement": "inhibition", "setting": "[6]; read-out: % Inhibition 1", "result": 0, "unit": "%"},
      {"measurement": "inhibition", "setting": "[6]; read-out: % Inhibition 2", "result": 1, "unit": "%"},
      {"measurement": "inhibition", "setting": "[6]; read-out: % Inhibition Avg", "result": 0, "unit": "%"},
      {"measurement": "inhibition", "setting": "[7]; read-out: % Inhibition 1", "result": 7, "unit": "%"},
      {"measurement": "inhibition", "setting": "[7]; read-out: % Inhibition 2", "result": 3, "unit": "%"},
      {"measurement": "inhibition", "setting": "[7]; read-out: % Inhibition Avg", "result": 5, "unit": "%"}
    ]}
  ]
}
